Data taken from patent publication US9580390B2, “Indazole compounds as kinase inhibitors and method of treating cancer with same” (University Health Network, priority 2011, dated 2017).

Key:
human TTK = target: T1, human TTK (Homo sapiens, UniProt P33981); test: TTK inhibition assay (indirect ELISA); format: biochemical; details: read-out: TTK IC50 Range
T1 construct: amino terminal GST fusion of full length human TTK; purchased Invitrogen
T1 sequence (P33981 1-857): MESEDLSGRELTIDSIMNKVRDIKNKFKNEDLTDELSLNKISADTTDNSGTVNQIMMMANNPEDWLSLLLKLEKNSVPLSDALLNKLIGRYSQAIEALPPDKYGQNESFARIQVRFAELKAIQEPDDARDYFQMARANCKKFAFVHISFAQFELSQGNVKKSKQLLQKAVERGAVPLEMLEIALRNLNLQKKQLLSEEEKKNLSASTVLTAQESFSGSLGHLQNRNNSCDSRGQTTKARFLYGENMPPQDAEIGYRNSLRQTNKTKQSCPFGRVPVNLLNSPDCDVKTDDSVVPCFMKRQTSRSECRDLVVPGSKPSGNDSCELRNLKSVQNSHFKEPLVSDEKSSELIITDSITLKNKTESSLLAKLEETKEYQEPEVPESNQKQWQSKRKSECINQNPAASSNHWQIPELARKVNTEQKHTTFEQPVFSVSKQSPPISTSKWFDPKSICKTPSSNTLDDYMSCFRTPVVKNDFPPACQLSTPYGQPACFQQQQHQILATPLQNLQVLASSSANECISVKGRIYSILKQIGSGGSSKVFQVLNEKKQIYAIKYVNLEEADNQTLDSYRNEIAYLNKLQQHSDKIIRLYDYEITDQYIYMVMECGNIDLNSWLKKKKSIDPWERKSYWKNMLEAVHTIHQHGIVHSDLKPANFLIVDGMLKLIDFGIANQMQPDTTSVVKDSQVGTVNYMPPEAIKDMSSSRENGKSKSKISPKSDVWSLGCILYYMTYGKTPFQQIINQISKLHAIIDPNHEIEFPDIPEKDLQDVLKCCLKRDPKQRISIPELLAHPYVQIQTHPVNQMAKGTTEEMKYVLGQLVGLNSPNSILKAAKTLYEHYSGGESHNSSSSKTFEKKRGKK

Breast cancer cells = test: Cancer cell line growth inhibition (SRB assay); format: cell-based; details: Homo sapiens; MDA-MB-468; read-out: Cancer Cell Line GI50 Range MDA-MB-468
[1] = test system: colon cancer cells (HCT116); test: Cancer cell line growth inhibition (SRB assay); format: cell-based; details: Homo sapiens, HCT-116; read-out: Cancer Cell Line GI50 Range HCT116
[2] = test system: ovarian cancer cells (PA-1); test: Cancer cell line growth inhibition (SRB assay); format: cell-based; details: Homo sapiens, PA-1; read-out: Cancer Cell Line GI50 Range PA-1
human PLK4 = target: T2, human PLK4 (Homo sapiens, UniProt O00444); test: PLK4 inhibition assay (indirect ELISA); format: biochemical; details: 15 μM ATP
T2 construct: amino terminal GST fusion of residues 1-391 of human PLK4; made in house; host or cells: E. coli
T2 sequence (O00444 1-391): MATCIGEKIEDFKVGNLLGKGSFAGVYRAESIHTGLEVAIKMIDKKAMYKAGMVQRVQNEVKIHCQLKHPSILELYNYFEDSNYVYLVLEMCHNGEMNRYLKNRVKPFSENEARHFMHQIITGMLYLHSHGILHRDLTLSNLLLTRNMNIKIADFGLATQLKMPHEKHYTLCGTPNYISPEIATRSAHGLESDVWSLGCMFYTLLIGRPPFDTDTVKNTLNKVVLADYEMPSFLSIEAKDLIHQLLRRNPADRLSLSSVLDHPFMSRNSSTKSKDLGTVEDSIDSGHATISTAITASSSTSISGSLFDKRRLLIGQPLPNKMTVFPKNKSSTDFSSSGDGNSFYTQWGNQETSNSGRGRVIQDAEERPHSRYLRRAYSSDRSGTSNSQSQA
Method: Active PLK4 was purified from an E. coli expression system as an amino terminal GST fusion of residues 1-391 of human PLK4. The protein was purified from clarified cell extracts after induction at 15° C. overnight using glutathione sepharose, gel permeation chromatography, and ion exchange (Resource Q). The resulting protein was dephosphorylated with lambda phosphatase (NEB cat# P0753), and resolved from the phosphatase using gluthione sepharose. The dephosphorylated GST-PLK4 was stored in aliquots at −80° C. until use.
PLK4 activity was measured using an indirect ELISA detection system. Dephosphorylated GST-PLK4 (4 nM) was incubated in the presence of 15 μM ATP (Sigma cat# A7699), 50 mM HEPES-[…] pH 7.4, 10 mM MgCl2, 0.01% Brij 35 (Sigma cat# 03-3170), in a 96 well microtitre plate pre-coated with MBP (Millipore cat#30-011). The reaction was allowed to proceed for 30 minutes, followed by 5 washes of the plate with Wash Buffer (50 mM TRIS-Cl pH 7.4 and 0.2% Tween 20), and incubation for 30 minutes with a 1:3000 dilution of primary antibody (Cell Signaling cat# 9381). The plate was washed 5 times with Wash Buffer, incubated for 30 minutes in the presence of secondary antibody coupled to horse radish peroxidase (BioRad cat# 1721019, 1:3000 concentration), washed an additional 5 times with Wash Buffer, and incubated in the presence of TMB substrate (Sigma cat# T0440). The colourimetric reaction was allowed to continue for 5 minutes, followed by addition of stop solution (0.5 N sulphuric acid), and quantified by detection at 450 nm with either a monochromatic or filter based plate reader (Molecular Devices M5 or Beckman DTX880, respectively).
Compound inhibition was determined at either a fixed concentration (10 μM) or at a variable inhibitor concentration (typically 50 μM to 0.1 μM in a 10 point dose response titration). Compounds were pre-incubated in the presence of enzyme for 15 minutes prior to addition of ATP and the activity remaining quantified using the above described activity assay. The % Inhibition of a compound was determined using the following formula: % Inhibition=100×(1−(experimental value−background value)/(high activity control−background value)). The IC50 value was determined using a non-linear 4 point logistic curve fit (XLfit4, IDBS) with the formula: (A+(B/(1+((x/C)^D)))), where A=background value, B=range, C=inflection point, D=curve fit parameter.

IC50 (human TTK) | GI50 (Breast cancer cells) | GI50 [1] | GI50 [2] | IC50 (human PLK4) | Compound
< 100 nM | 100 to 500 nM | 100 to 500 nM | < 100 nM | < 50 nM | O=C(N[C@@H](c1ccsc1)C1CCCC1)c1ccc2[nH]nc(-c3ccc(OC4CCN(CCO)CC4)cc3)c2c1 [Example A219, (R)-N-(cyclopentyl(thiophen-3-yl)methyl)-3-(4-((1-(2-hydroxyethyl)piperidin-4-yl)oxy)phenyl)-1H-indazole-5-carboxamide]
< 100 nM | 100 to 500 nM | 100 to 500 nM | < 100 nM | < 50 nM | C[C@@H](O)CN1CCC(Oc2ccc(-c3n[nH]c4ccc(C(=O)N[C@H](c5ccsc5)C5CC5)cc34)cc2)CC1 [Example A220, N-((S)-cyclopropyl(thiophen-3-yl)methyl)-3-(4-((1-((R)-2-hydroxypropyl)piperidin-4-yl)oxy)phenyl)-1H-indazole-5-carboxamide]
< 100 nM | 100 to 500 nM | 100 to 500 nM | 100 to 500 nM | < 50 nM | CN1CCC2(CCc3cc(-c4n[nH]c5ccc(C(=O)N[C@H](c6ccccc6)C6CC6)cc45)ccc3O2)CC1 [Example A249, (S)-N-(cyclopropyl(phenyl)methyl)-3-(1′-methylspiro[chroman-2,4′-piperidin]-6-yl)-1H-indazole-5-carboxamide]
< 100 nM | 100 to 500 nM | < 100 nM | < 100 nM | < 50 nM | CC(C)[C@H](NC(=O)c1ccc2[nH]nc(-c3ccc4c(c3)CCC3(CCN(C)CC3)O4)c2c1)c1ccccc1Cl [Example A250, (S)-N-(1-(2-chlorophenyl)-2-methylpropyl)-3-(1′-methylspiro[chroman-2,4′-piperidin]-6-yl)-1H-indazole-5-carboxamide]
< 100 nM | 100 to 500 nM | < 100 nM | < 100 nM | < 50 nM | CN1CCC2(CCc3cc(-c4n[nH]c5ccc(C(=O)N[C@H](c6ccccn6)C6CCCC6)cc45)ccc3O2)CC1 [Example A253, (S)-N-(cyclopentyl(pyridin-2-yl)methyl)-3-(1′-methylspiro[chroman-2,4′-piperidin]-6-yl)-1H-indazole-5-carboxamide]
< 100 nM | < 100 nM | < 100 nM | < 100 nM | < 50 nM | O=C(NC(c1ccccc1Cl)C1CCC1)c1ccc2[nH]nc(-c3ccc(N4CCN(C5COC5)CC4)cc3)c2c1 (stereo not shown) [Example A297, N-((2-chlorophenyl)(cyclobutyl)methyl)-3-(4-(4-(oxetan-3-yl)piperazin-1-yl)phenyl)-1H-indazole-5-carboxamide]
< 100 nM | 100 to 500 nM | 100 to 500 nM | 100 to 500 nM | < 50 nM | CC(C)CC(NC(=O)c1ccc2[nH]nc(-c3ccc(OC4CCN(C5COC5)CC4)cc3)c2c1)c1ccccc1Cl (stereo not shown) [Example A355, N-(1-(2-chlorophenyl)-3-methylbutyl)-3-(4-((1-(oxetan-3-yl)piperidin-4-yl)oxy)phenyl)-1H-indazole-5-carboxamide]

More lines, now with the values behind:

Compound | IC50 (human TTK) | GI50 (Breast cancer cells) | GI50 [1] | GI50 [2] | IC50 (human PLK4)
CN1C2CCC1CC(Oc1ccc(-c3n[nH]c4ccc(C(=O)N[C@H](c5ccsc5)C5CCCC5)cc34)cc1)C2 (stereo partly drawn) [Example A248, N-((S)-cyclopentyl(thiophen-3-yl)methyl)-3-(4-(((1R,3R,5S)-8-methyl-8-azabicyclo[3.2.1]octan-3-yl)oxy)phenyl)-1H-indazole-5-carboxamide] | < 100 nM | 100 to 500 nM | 100 to 500 nM | 100 to 500 nM | < 50 nM
CC(C)C[C@H](NC(=O)c1ccc2[nH]nc(-c3ccc(N4CCN(C5COC5)CC4)cc3)c2c1)c1ccccc1F [Example A275, (S)-N-(1-(2-fluorophenyl)-3-methylbutyl)-3-(4-(4-(oxetan-3-yl)piperazin-1-yl)phenyl)-1H-indazole-5-carboxamide] | < 100 nM | < 100 nM | < 100 nM | < 100 nM | < 50 nM
CN1[C@@H]2CC[C@H]1C[C@@H](Oc1ccc(-c3n[nH]c4ccc(C(=O)NC(c5ccccc5Cl)C5CC5)cc34)cc1)C2 (stereo partly drawn) [Example A280, N-((2-chlorophenyl)(cyclopropyl)methyl)-3-(4-(((1R,3R,5S)-8-methyl-8-azabicyclo[3.2.1]octan-3-yl)oxy)phenyl)-H-indazole-5-carboxamide] | < 100 nM | 100 to 500 nM | < 100 nM | < 100 nM | < 50 nM
CN1[C@@H]2CC[C@H]1C[C@@H](Oc1ccc(-c3n[nH]c4ccc(C(=O)NC(c5ccccc5F)C5CC5)cc34)cc1)C2 (stereo partly drawn) [Example A282, N-(cyclopropyl(2-fluorophenyl)methyl)-3-(4-(((1R,3R,5S)-8-methyl-8-azabicyclo[3.2.1]octan-3-yl)oxy)phenyl)-1H-indazole-5-carboxamide] | < 100 nM | 100 to 500 nM | < 100 nM | < 100 nM | < 50 nM
CC(C)C(NC(=O)c1ccc2[nH]nc(-c3ccc(O[C@H]4C[C@H]5CC[C@@H](C4)N5C)cc3)c2c1)c1ccccc1 (stereo partly drawn) [Example A285, N-(2-methyl-1-phenylpropyl)-3-(4-(((1R,3R,5S)-8-methyl-8-azabicyclo[3.2.1]octan-3-yl)oxy)phenyl)-1H-indazole-5-carboxamide] | < 100 nM | 100 to 500 nM | < 100 nM | < 100 nM | < 50 nM
C=CCCC(NC(=O)c1ccc2[nH]nc(-c3ccc(N4CCN(C5COC5)CC4)cc3)c2c1)c1ccccc1Cl (stereo not shown) [Example A302, N-(1-(2-chlorophenyl)pent-4-en-1-yl)-3-(4-(4-(oxetan-3-yl)piperazin-1-yl)phenyl)-1H-indazole-5-carboxamide] | < 100 nM | 100 to 500 nM | < 100 nM | < 100 nM | < 50 nM
CCC(CC)C(NC(=O)c1ccc2[nH]nc(-c3ccc(O[C@H]4C[C@H]5CC[C@@H](C4)N5C=O)cc3)c2c1)c1ccccn1 (stereo partly drawn) [Example A342, N-(2-ethyl-1-(pyridin-2-yl)butyl)-3-(4-(((1R,3R,5S)-8-formyl-8-azabicyclo[3.2.1]octan-3-yl)oxy)phenyl)-1H-indazole-5-carboxamide] | < 100 nM | < 100 nM | < 100 nM | < 100 nM | < 50 nM
